In one test the test system is Plasmodium falciparum. As to the kind of experiment: Antimicrobial activity against Plasmodium falciparum 3D7 by DAPI growth inhibition assay. The test is classed as functional, organism-based.
Test [1] deals with Heme. As to the kind of experiment: Inhibition of heme crystallization by hemichrome inhibition of beta-hematin assay. Type of test: functional.
Test [2] deals with Heme. Kind of test: Inhibition of heme crystallization by cell-free heme crystallization screen assay.

The structures appear in SMILES notation.

As for `CCN(CC)Cc1cc(Nc2ccnc3cc(Cl)ccc23)ccc1O.Cl`, the IC50 came out at 0.0068 µM in the test with Plasmodium falciparum, 1.45 equiv with Heme [1] and 67 µM in the test on Heme [2].

In the case of `CCN(CC)CCCC(C)Nc1ccnc2cc(Cl)ccc12` (configuration not stated) [CHLOROQUINE], the IC50 in the test with Heme [1] is 1.91 equiv; in the test with Heme [2], 374 µM.

For `OC(c1cc(C(F)(F)F)nc2c(C(F)(F)F)cccc12)C1CCCCN1` (configuration not stated) [MEFLOQUINE], the IC50 in the test on Heme [1] came out at 2.9 equiv; in the test on Heme [2], 476 µM.
